Each structure is given as a SMILES string. ≈ marks a conversion by molar mass, not a printed value. Like-named read-outs stand apart in the source and are kept apart here.

In experiment [1] the test system is A. baumannii ATCC 19606. The experiment in a line: Antibacterial activity: MIC/MBC, MIC with PAβN, disc-diffusion. The note with it: Acinetobacter baumannii, ATCC19606; A. baumannii ATCC 19606; read-out: MIC. Format: cell-based, Acinetobacter baumannii. Summed up:
(§1)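 Read-outs are disc-diffusion zones, broth-microdilution MICs and bactericidal concentrations (MBC), following EUCAST and CLSI guidance. The efflux contribution was probed by rerunning MICs with 20 μg mL^−1 PAβN in MgSO4-supplemented (1 mM) Mueller–Hinton II broth, a ≥4-fold decrease being significant.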

In experiment [2] the test system is E. coli ATCC 25922. The description is as above. Format: cell-based, Escherichia coli. The note with it: E. coli ATCC 25922; for MIC: Escherichia coli, ATCC25922, read-out: MIC; for -fold reduction of MIC in the presence of PAβN: PAβN 20 μg mL^−1, MHB + 1 mM MgSO4. The method, boiled down: as §1
Experiment [3] deals with P. aeruginosa ATCC 27853. The description is as above. Format: cell-based. The note with it: Pseudomonas aeruginosa, ATCC27853; P. aeruginosa ATCC 27853; read-out: MIC. Summed up: as §1
In experiment [4] the test system is S. maltophilia ATCC 13637. Described as above. Format: cell-based, Stenotrophomonas maltophilia. The note with it: Stenotrophomonas maltophilia, ATCC13637; S. maltophilia ATCC 13637; read-out: MIC. Summed up: as §1
The subject of experiment [5] is S. maltophilia ATCC 12714. The experiment is described as above. The note with it: Stenotrophomonas maltophilia, ATCC12714; S. maltophilia ATCC 12714; read-out: MIC. Format: cell-based, Stenotrophomonas maltophilia. Summed up:
as §1

For experiment [6], the system named is B. cepacia ATCC 25416. Nature of the experiment: Antibacterial activity: MIC/MBC, disc-diffusion. Format: cell-based, Burkholderia cepacia. The note with it: Burkholderia cepacia, ATCC25416; B. cepacia ATCC 25416; read-out: MIC. The method, boiled down:
as §1

Experiment [7] has as its system B. bronchiseptica ATCC 4617. The experiment in a line: Antibacterial activity: MIC/MBC, disc-diffusion. Format: cell-based, Bordetella bronchiseptica. The note with it: Bordetella bronchiseptica, ATCC4617; B. bronchiseptica ATCC 4617; read-out: MIC. Summed up: as §1
For experiment [8], the system named is C. tropicalis IBA 171. Nature of the experiment: Antifungal activity: MIC/MFC, disc-diffusion. The note with it: for MIC: Candida tropicalis, IBA171, read-out: MIC. Format: cell-based. Summed up: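 Strains were subcultured twice for 24–48 h at 30 °C, on TSA for bacteria and Sabouraud dextrose agar for yeasts. Disc-diffusion and MIC followed EUCAST/CLSI recommendations, and MBC/MFC followed CLSI. Compounds were dissolved in DMSO, with fluconazole or linezolid as references.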

Experiment [9] has as its system S. aureus ATCC 6538P. The experiment in a line: Antibacterial activity: MIC/MBC determination and disc-diffusion. Format: cell-based, Staphylococcus aureus. The note with it: S. aureus ATCC 6538P; for diameter of inhibition zone: disc-diffusion, — = zone not observed; for MBC / MIC: Staphylococcus aureus, ATCC6538P; for MIC: read-out: MIC. The method, boiled down:
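CLSI recommendations governed the MBC/MFC determination. MICs and inhibition zones were obtained by EUCAST/CLSI dilution and disc-diffusion methods, with compounds delivered in DMSO.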

The subject of experiment [10] is P. mirabilis ATCC 12453. The experiment in a line: Antibacterial activity: MIC/MBC, MIC with PAβN, disc-diffusion. Format: cell-based, Proteus mirabilis. The note with it: Proteus mirabilis, ATCC12453; P. mirabilis ATCC 12453; read-out: MIC. Summed up: as §1
Setting [11] is: read-out: MBC (first MBC where Eagle effect).
Setting [12] is: value after the slash, read-out: second MBC (Eagle effect).

With `C[Si]1(C)OB(O)c2ccc(SCCC(=O)OCCCCCC[n+]3ccccc3)c(F)c21` [Compound 19, 1-(6-((3-((7-Fluoro-3-hydroxy-1,1-dimethyl-1,3-dihydrobenzo[c][1,2,5]oxasilaborol-6-yl)thio)propanoyl)oxy)hexyl)pyridin-1-ium trifluoromethanesulfonate], the MIC in experiment [1], in [2], in experiment [3], in [4], in [5] and in experiment [6] was more than 400 µg/mL each time. Also, the MIC in experiment [7] was more than 400 µg/mL; in experiment [8], 400 µg/mL; in [9] it was 25 µg/mL; in experiment [10], more than 400 µg/mL. Moreover, the “diameter of inhibition zone” value in [8] (C. tropicalis IBA 171, (-) = zone not observed, paper discs 9 mm) was found to be 16 mm; in [9], 20 mm. Moreover, the MBC in experiment [9] (setting [11]) was 100 µg/mL.

On to `C[Si]1(C)OB(O)c2cc(F)c(SCCS(=O)(=O)c3ccccc3)c(F)c21` [Compound 20, 5,7-Difluoro-1,1-dimethyl-6-((2-(phenylsulfonyl)ethyl)thio)benzo[c][1,2,5]oxasilaborol-3(1H)-ol], for which the minimal inhibitory concentration (MIC) in experiment [1], in experiment [2], in [3], in experiment [4], in [5] and in experiment [6] was more than 400 µg/mL each time. In addition, the MIC in [7] was more than 400 µg/mL; in experiment [8], more than 400 µg/mL; in experiment [9], 3.12 µg/mL (≈ 7.53 µM); in experiment [10], more than 400 µg/mL. Also, the “-fold reduction of MIC in the presence of PAβN” value in experiment [2] is recorded as 32 -fold. Further, the “diameter of inhibition zone” value in experiment [9] came out at 30 mm. For the same compound, the MBC was determined as 12.5 µg/mL (≈ 30.2 µM) in experiment [9] (setting [11]) and 200 µg/mL (≈ 483 µM) in [9] (setting [12]).

For `C[Si]1(C)OB(O)c2ccc(SCCS(=O)(=O)c3ccccc3)c(F)c21` [Compound 21, 7-Fluoro-1,1-dimethyl-6-((2-(phenylsulfonyl)ethyl)thio)benzo[c][1,2,5]oxasilaborol-3(1H)-ol], the MIC in [1], in experiment [2], in [3], in [4], in experiment [5] and in [6] was more than 400 µg/mL each time. In addition, the MIC in experiment [7] was more than 400 µg/mL; in experiment [8], 400 µg/mL (≈ 1010 µM); in experiment [9], 12.5 µg/mL (≈ 31.5 µM); in [10], more than 400 µg/mL. For the same compound, the “diameter of inhibition zone” value in experiment [2] ((-) = zone not observed, paper discs 9 mm) is given as 11 mm; in experiment [9] it was 26 mm. The “-fold reduction of MIC in the presence of PAβN” value in experiment [2] is listed as 16 -fold. Further, the MBC in [9] (setting [11]) was 200 µg/mL (≈ 505 µM).

For `CC(=O)CSc1ccc2c(c1F)[Si](C)(C)OB2O` [Compound 22, 1-((7-Fluoro-3-hydroxy-1,1-dimethyl-1,3-dihydrobenzo[c][1,2,5]oxasilaborol-6-yl)thio)propan-2-one], the MIC in experiment [1], in experiment [2], in experiment [3], in experiment [4], in experiment [5] and in experiment [6] was more than 400 µg/mL in each case. Besides, the MIC in experiment [7] was more than 400 µg/mL; in experiment [8] it was more than 400 µg/mL; in experiment [9], 1.56 µg/mL (≈ 5.49 µM); in experiment [10] it was more than 400 µg/mL. For the same compound, in [9], the “diameter of inhibition zone” value amounted to 25 mm. Moreover, the MBC in experiment [9] (setting [11]) was found to be 200 µg/mL (≈ 704 µM).

Take `C[Si]1(C)OB(O)c2ccc(SCC(=O)c3ccccc3)c(F)c21` [Compound 23, 2-((7-Fluoro-3-hydroxy-1,1-dimethyl-1,3-dihydrobenzo[c][1,2,5]oxasilaborol-6-yl)thio)-1-phenylethan-1-one]: the MIC in [1], in [2], in [3], in [4], in experiment [5] and in [6] was more than 400 µg/mL each time. The MIC in experiment [7] is more than 400 µg/mL; in experiment [8] it was 400 µg/mL (≈ 1160 µM); in [9] it was 1.56 µg/mL (≈ 4.51 µM); in [10], more than 400 µg/mL. Moreover, the “diameter of inhibition zone” value in experiment [9] is 31 mm. In addition, the MBC in [9] (setting [11]) worked out at 3.12 µg/mL (≈ 9.01 µM); in experiment [9] (setting [12]), 200 µg/mL (≈ 578 µM).

For the origin of these results see publication PMC11110727, “Exploiting thiol-functionalized benzosiloxaboroles for achieving diverse substitution patterns – synthesis, characterization and biological evaluation of promising antibacterial agents” (RSC Medicinal Chemistry, 2024).
